# Test results published in patent US20260083844A1, “DOWNREGULATING INOS TO INCREASE CAR-T KILLING” (H. LEE MOFFITT CANCER CENTER AND RESEARCH INSTITUTE INC., priority 2022, published 2026).
# How the values were obtained:
# CAR T cells [1] = assay: CAR T cell expansion assay (live cell analysis) in coculture with Eμ-myc cells with or without macrophages; assay type: cell-based, mouse; settings: over 48 h
# Protocol: To explore how M2-like macrophages may impact the cellular function of CAR T cells, a syngeneic coculture system was employed (FIG. 2A). […] The BMDMs were differentiated into M2-like macrophages (imMac) by culturing with IL-4 and IL-10 or with media alone without further differentiation to utilize as unpolarized macrophage controls (unMac). The mCherry reporter served as a marker for CAR transduction and CAR T cell expansion.
# The expansion of CAR T cells was determined by an Incucyte S3 live cell analysis system (Essen Bioscience). 2×10^4 Eμ-myc cells and 2×10^4 CAR T cells were cocultured in the absence or presence of 0.5×10^4 macrophages (CAR T:Eμ-myc cell:Macrophage=1:1:0.25, unless otherwise indicated in the figure legends) in a 96-well black-walled clear bottom plate in 120 μl of media. Cell images were captured at 4× magnification. The expansion index was calculated by dividing the total integrated red intensity (RCU×μm^2/mm^2) at each time point by the first time point.
# Eμ-myc cells = assay: Luciferase-based killing assay with CAR T cells isolated from initial coculture; assay type: cell-based, mouse; settings: for ability of CAR T cells to kill tumor cells: 48 h initial coculture with Eμ-myc cells in presence of NCX-4016 (100 µM) or PNT (50 µM), no macrophages, lysis at 24 h
# Protocol: (§1) 1×10^6 CAR T cells and 1×10^6 Eμ-myc-GFP-FFL cells were cocultured in the absence or presence of 0.25×10^6 macrophages in a 6-well plate in 6 ml of media for 48 h. After initial coculture, cells were harvested, and T cells were isolated using Mouse T Cell Isolation Kit ([…] Technologies). […] Percentage of CAR-expressing T cells was determined with flow cytometry and were subsequently used for downstream assays.
# 2×10^4 Eu-ALL-GFP-FFL cells were cocultured with CAR T cells at different effector-to-target ratios in a 96-well white-walled plate in 100 μl of media. Following incubation, 100 μl luciferase substrate reagent (ONE-Glo Luciferase assay system, Promega) was added to each well. Target cells alone were plated at the same cell density to determine maximum luciferase signals. Emitted luminescence was detected in the microplate reader (GloMax, Promega). Percent lysis was determined as (1-sample signal/maximum signal)×100.
# IFN-γ and TNF-α = assay: Cytokine secretion assay with CAR T cells isolated from initial coculture; assay type: cell-based, mouse; settings: for secretion of effector cytokines IFN-γ and TNF-α by CAR T cells: 48 h initial coculture with Eμ-myc cells in presence of NCX-4016 (100 µM) or PNT (50 μM), no macrophages, supernatants at 24 h
# Protocol: as §1
# 2×10^4 Eμ-myc cells were cocultured with 2×10^4 CAR T cells in a 96-well plate in a total volume of 100 μl of media. Supernatants were collected and analyzed for IFN-γ and TNF-α secretion using Ella automated immunoassay system (Proteinsimple Bio-techne) according to manufacturer's instructions.
# CAR T cells [2] = assay: Global metabolomics on CAR T cells from coculture; assay type: cell-based, mouse; settings: 48 h coculture with imMac
# Protocol: (§2) 1×10^6 CAR T cells and 1×10^6 Eμ-myc-GFP-FFL cells were cocultured in the absence or presence of 0.25×10^6 macrophages in a 6-well plate in 6 ml of media for 48 h. After initial coculture, cells were harvested, and T cells were isolated using Mouse T Cell Isolation Kit (STEMCELL Technologies). T cell purity was 100% as tested by flow cytometry. Percentage of CAR-expressing T cells was determined with flow cytometry and were subsequently used for downstream assays.
# Global metabolomic profiling and 13C6-labeled glucose tracing of CAR T cells, 1×10^6 T cells were resuspended in either RPMI-1640 medium (RPMI+10% heat-inactivated dialyzed FBS) or 13C6-glucose substituted RPMI-1640 medium (glucose-free RPMI+10% heat-inactivated dialyzed FBS+11.1 mM ^13C6-glucose). After 4 h incubation, cells were collected, rapidly centrifuged (17,000×g, 10 sec, room temperature), and medium was removed. T cells were washed with 1 ml of ice-cold PBS, and metabolites were extracted with 300 μl of 80% methanol via incubation at −80° C. for 15 min. Samples were centrifuged (17,000×g, 20 min, 4° C.), and supernatants were transferred to an Eppendorf tube and dried in a vacuum evaporator overnight. The dried extracts were resuspended in 20 μl of aqueous 50% methanol, clarified by centrifugation (17,000×g, 20 min, room temperature), and analyzed by LC-HRMS. […]
# CAR T cells [3] = assay: Seahorse assay (ECAR, OCR) on CAR T cells from coculture; assay type: cell-based, mouse; settings: 48 h coculture in the presence of imMac
# Protocol: as §2
# ECAR and OCR were measured using a Seahorse Extracellular Flux Analyzer (Agilent Technologies). XF96 microplates were coated with CellTak a day before analyses. To assay glycolytic function, T cells were resuspended in glucose-free XF medium supplied with 2 mM L-glutamine and 1 mM sodium pyruvate and seeded at 2×10^5 cells in 180 μl per well. Following incubation in a CO2-free incubator for 60 min at 37° C. for pH stabilization, ECAR was measured in response to 10 mM glucose, 1 μM oligomycin, and 50 mM 2-deoxyglucose. To assay mitochondrial function, T cells were resuspended in XF medium supplied with 2 mM L-glutamine, 1 mM sodium pyruvate, and 10 mM glucose and seeded at 2×10^5 cells in 180 μl per well. Following incubation in a CO2-free incubator for 60 min at 37° C. for pH stabilization, OCR was measured in response to 1 μM oligomycin, 1 μM FCCP, and 0.5 µM rotenone and antimycin.
# Eμ-myc B cell tumors = assay: Survival of Eμ-myc tumor-bearing Rag1−/− mice treated with CAR T cells; assay type: in vivo, mouse; settings: combination of 1928z CAR T cells and L-NIL (20 mg/kg i.p. once per day) compared to 1928z CAR T cells alone
# Protocol: Six-to 10-week-old Rag1/-mice of both sexes were intraperitoneally (i.p.) injected with 3×10^6 Eμ-myc-GFP-FFL cells to generate tumors localized in peritoneal cavity. Tumor engraftment was verified by bioluminescence imaging one day before CAR T cell transfer. Mice were randomized to different treatment groups without differences in pre-treatment tumor load. Seven days after tumor cell inoculation, mice were injected i.p. with 5×10^6 CAR T cells in 300 μl PBS. For survival experiments, L-NIL or PBS was administered i.p. once per day at 20 mg/kg body weight starting on the same day of tumor cell injection. […] Bioluminescence imaging was performed by IVIS Lumina III In Vivo Imaging System (PerkinElmer) with Living Image software (PerkinElmer).
# [4] = CAR T cells cocultured with Eμ-myc cells without macrophages
# [5] = cocultures of CAR T cells and Eμ-myc cells with imMac
compound,measurement,setting,value
"C=C(CC(=O)OCCCCCCCC)C(=O)O [4-OI, 4-octyl itaconate]",CAR T cell expansion,CAR T cells [1]; [4],impaired CAR T cell expansion
"CC(=N)NCCCC[C@H](N)C(=O)O [L-NIL, L-N6-(1-Iminoethyl)-lysine]",CAR T cell expansion,CAR T cells [1]; [5],complete rescue of CAR T cell expansion
same,capacity of CAR T cells to kill (lyse) tumor cells,"Eμ-myc cells; CAR T cells isolated after 48 h initial coculture with imMac, then cocultured with fresh Eμ-myc cells, 24 h",preserved the capacity of CAR T cells to kill tumor cells
same,production of effector cytokines IFN-γ and TNF-α by CAR T cells,"IFN-γ and TNF-α; CAR T cells isolated after 48 h initial coculture with imMac, then cocultured with fresh Eμ-myc cells",preserved
same,"depletion of F1,6BP, G3P and DHAP in CAR T cells cocultured with imMac",CAR T cells [2],reversal
same,"glycolytic and oxidative metabolic capabilities of CAR T cells (ECAR, OCR)",CAR T cells [3],preserved glycolytic and oxidative metabolic capabilities of CAR T cells
same,survival of tumor-bearing mice,Eμ-myc B cell tumors,significantly improved survival
CC(=O)Oc1ccccc1C(=O)Oc1cccc(CO[N+](=O)[O-])c1 [NCX-4016],CAR T cell expansion,CAR T cells [1]; [4],inhibition of CAR T cell expansion
same,ability of CAR T cells to kill tumor cells,Eμ-myc cells,diminished ability of CAR T cells to kill tumor cells
same,secretion of effector cytokines IFN-γ and TNF-α by CAR T cells,IFN-γ and TNF-α,diminished
"O=NOO [PNT, peroxynitrite]",CAR T cell expansion,CAR T cells [1]; [4],inhibition of CAR T cell expansion
same,ability of CAR T cells to kill tumor cells,Eμ-myc cells,diminished ability of CAR T cells to kill tumor cells
same,secretion of effector cytokines IFN-γ and TNF-α by CAR T cells,IFN-γ and TNF-α,diminished
"CC1(C)N([O])C(c2ccc(C(=O)O)cc2)=[N+]([O-])C1(C)C [c-PTIO, carboxyl-PTIO]",CAR T cell expansion,CAR T cells [1]; [5],partially rescued expansion of CAR T cells
NC(=O)NCCC[C@H](N)C(=O)O [citrulline],CAR T cell expansion,CAR T cells [1]; [4],did not impact expansion of CAR T cells
N=C(NO)NCC[C@H](N)C(=O)O [nor-NOHA],CAR T cell expansion,"CAR T cells [1]; cocultures with imMac, physiological arginine concentration (150 μM)",failed to rescue CAR T cell expansion
same,CAR T cell expansion,"CAR T cells [1]; cocultures with imMac, supraphysiological arginine concentration (1.15 mM)",did not restore CAR T cell expansion
